Data: publication PMC5707507 (2015)

Legend:
[1] = system: ssDNA (DNA, single strand) CCAGTTCGTAGTAACCC; test: luminescence response; conditions: none stated in assay buffer; 10 mM Tris-HCl, pH 7.2; 1.5 µM complex; 5 µM DNA highest tested
[2] = system: F10T (DNA, hairpin, hexaethylene glycol (HEG) linker between 8 and 9) TATAGCTATATAGCTATAT; test: FRET melting; conditions: 10 mM Li+; lithium cacodylate, pH 7.4; 5 µM compound; 0.2 µM DNA
[3] = system: ds26 (DNA, duplex) CAATCGGATCGAATTCGATCCGATTG; test: G4-FID, thiazole orange displacement; conditions: 100 mM KCl; 10 mM Tris-HCl, pH 7.2; 0.75 µM thiazole orange; <15% displaced at highest concentration 1.25 µM
[4] = system: c-myc (DNA, G4) TGAGGGTGGGTAGGGTGGGTAA; test: G4-FID, thiazole orange displacement; conditions: 100 mM KCl; 10 mM Tris-HCl, pH 7.2; 0.25 µM DNA; 0.50 µM thiazole orange displaced
[5] = system: F21T (DNA, G4) GGGTTAGGGTTAGGGTTAGGG; test: FRET melting; conditions: 100 mM K+; potassium cacodylate, pH 7.0; 5 µM compound; 0.2 µM DNA
[6] = system: c-myc (DNA, G4) TGAGGGTGGGTAGGGTGGGTAA; test: luminescence response; conditions: 20 mM KCl (annealing); 10 mM Tris-HCl, pH 7.2; 1.5 µM complex; 5 µM DNA; intensity ratio 7.5 over ds26, 5.5 over ssDNA

Which results are given for `Cc1ccc(-c2ccc(C)cn2)nc1.[Ir+3].[c-]1ccccc1-c1nc2ccccc2[nH]1.[c-]1ccccc1-c1nc2ccccc2[nH]1`?
binding [1]: no; ΔTm [2]: 2 °C; DC50 [3]: > 1.25 µM; G4DC50 [4]: 0.85 µM; ΔTm [5]: ~ 6.0 °C

Which binding [6] does the source give for `Cc1ccc(-c2ccc(C)cn2)nc1.[Ir+3].[c-]1ccccc1-c1nc2ccccc2s1.[c-]1ccccc1-c1nc2ccccc2s1` here?
Its binding is “yes”.
